Experimental data taken from patent US20220348592A1, “FUSED HETEROCYCLIC DERIVATIVES” (Janssen Sciences Ireland Unlimited Company, priority 2019, published 2022).

Columns and labels:
HBV = assay: Anti-HBV activity: intracellular HBV DNA by real-time PCR in HepG2.117 cell line; format: cell-based, Hepatitis B virus; details: Hepatitis B virus, 72 h; HepG2.117 cells, 3 days of treatment, intracellular HBV DNA by real-time PCR, mean value; read-out: HBV-AVE-HepG2.117 EC50 (μM, mean value)
Experimental: The anti HBV activity was measured using the HepG2.117 cell line, a stable, inducibly HBV producing cell line, which replicates HBV in the absence of doxicycline (Tet-off system). The HepG2 cell line is available from ATCC® under number HB-8065. Transfection of the HepG2 cell line can be as described in Sun and Nassal 2006 Journal of Hepatology 45 (2006) 636-645 “Stable HepG2- and Huh7-based human hepatoma cell lines for efficient regulated expression of infectious hepatitis B virus”.
For the antiviral assay, HBV replication was induced, followed by a treatment with serially diluted compound in 96-well plates. After 3 days of treatment, the antiviral activity was determined by quantification of intracellular HBV DNA using real-time PCR and an HBV specific primer set and probe.

[1] = Cytotoxicity in HepG2.117 cells, ATPlite Luminescence Assay; format: cell-based, human; details: human, incubated for 3 days, mean value, read-out: TOX-HepG2.117 CC50 (μM, mean value)
Experimental: Cytotoxicity of the compounds was tested using HepG2 or HepG2.117 cells, incubated for 3 days in the presence of compounds. The viability of the cells was assessed using the PERKIN ELMER ATPlite Luminescence Assay System.”

SMILES | EC50 (HBV) | CC50 at 3 days [1]
C[C@@H]1Cc2nn3c(c2CN1C(=O)c1ccc(Cl)c(Cl)c1)C(=O)N([C@H](C)c1ccc(C#N)cc1)CC3 (relative stereo) [C88*R] | 0.076 µM | > 50 µM
C[C@@H]1Cc2nn3c(c2CN1C(=O)c1ccc(Cl)c(Cl)c1)C(=O)N([C@@H](C)c1ccc(C#N)cc1)CC3 (relative stereo) [C88*S] | 0.023 µM | > 50 µM
C[C@@H]1Cc2nn3c(c2CN1C(=O)c1ccc(Cl)c(Cl)c1)C(=O)N([C@H](C)c1ccc(C(F)(F)F)cc1)CC3 (relative stereo) [C105*R] | 0.059 µM | 14.6 µM
C[C@@H]1Cc2nn3c(c2CN1C(=O)c1ccc(Cl)c(Cl)c1)C(=O)N([C@@H](C)c1ccc(C(F)(F)F)cc1)CC3 (relative stereo) [C105*S] | 0.297 µM | > 50 µM
C[C@@H]1Cc2nn3c(c2CN1C(=O)c1ccc(Cl)c(Cl)c1)C(=O)N([C@@H](C)c1ccccc1C(F)(F)F)CC3 (relative stereo) [C123*R] | 0.174 µM | 20 µM
C[C@@H]1Cc2nn3c(c2CN1C(=O)c1ccc(Cl)c(Cl)c1)C(=O)N([C@H](C)c1ccccc1C(F)(F)F)CC3 (relative stereo) [C123*S] | 0.517 µM | 19.2 µM
C[C@@H]1Cc2nn3c(c2CN1C(=O)c1ccc(Cl)c(Cl)c1)C(=O)N([C@H](C)c1c[nH]nn1)CC3 (single isomer, unassigned) [Compound 31, (3R)-2-(3,4-Dichlorobenzoyl)-3-methyl-9-[(1*R)-1-(1H-1,2,3-triazol-4-yl)ethyl]-1,2,3,4,8,9-hexahydropyrido[4′,3′:3,4]pyrazolo[1,5-a]pyrazin-10(7H)-one] | 0.075 µM | > 50 µM
C[C@@H]1Cc2nn3c(c2CN1C(=O)c1ccc(Cl)c(Cl)c1)C(=O)N([C@@H](C)c1c[nH]nn1)CC3 (single isomer, unassigned) [Compound 32, (3R)-2-(3,4-Dichlorobenzoyl)-3-methyl-9-[(1*S)-1-(1H-1,2,3-triazol-4-yl)ethyl]-1,2,3,4,8,9-hexahydropyrido[4′,3′:3,4]pyrazolo[1,5-a]pyrazin-10(7H)-one] | 0.332 µM | > 50 µM
CN1O[C@@H](CO)Cn2nc3c(c2C1=O)CN(C(=O)c1ccc(Cl)c(Cl)c1)CC3 (single isomer, unassigned) [Compound 45, (4*R)-10-(3,4-Dichlorobenzoyl)-4-(hydroxymethyl)-2-methyl-4,5,8,9,10,11-hexahydropyrido-[4′,3′:3,4]pyrazolo[5,1-d][1,2,5]oxadiazepin-1(2H)-one] | 0.192 µM | > 50 µM
CN1O[C@H](CO)Cn2nc3c(c2C1=O)CN(C(=O)c1ccc(Cl)c(Cl)c1)CC3 (single isomer, unassigned) [Compound 46, (4*S)-10-(3,4-Dichlorobenzoyl)-4-(hydroxymethyl)-2-methyl-4,5,8,9,10,11-hexahydropyrido-[4′,3′:3,4]pyrazolo[5,1-d][1,2,5]oxadiazepin-1(2H)-one] | 0.505 µM | > 50 µM
C[C@@H]1Cc2nn3c(c2CN1C(=O)c1ccc(Cl)c(Cl)c1)C(=O)N(Cc1ccc(OC(F)F)cc1)CC3 [Compound 13, (3R)-2-(3,4-Dichlorobenzoyl)-9-{[4-(difluoromethoxy)phenyl]methyl}-3-methyl-1,2,3,4,8,9-hexahydropyrido[4′,3′:3,4]pyrazolo[1,5-a]pyrazin-10(7H)-one] | 0.055 µM | –
C[C@@H]1Cc2nn3c(c2CN1C(=O)c1ccc(Cl)c(Cl)c1)C(=O)N(Cc1cccc2c1ccn2C)CC3 [Example C120] | 0.047 µM | –
COc1ccc(CN2CCn3nc4c(c3C2=O)CN(C(=O)c2ccc(Cl)c(Cl)c2)[C@H](C)C4)cc1F [Example C140] | 0.032 µM | –
COc1cc(CN2CCn3nc4c(c3C2=O)CN(C(=O)c2ccc(Cl)c(Cl)c2)[C@H](C)C4)ccc1OC(F)F [Example C205] | 0.04 µM | –
Cc1ccc(CN2CCn3nc4c(c3C2=O)CN(C(=O)c2ccc(Cl)c(Cl)c2)[C@H](C)C4)c(F)c1 [Example C206] | 0.038 µM | –
